The values that follow come from ChEMBL document CHEMBL1134855, “Synthesis and hypoglycemic evaluation of substituted pyrazole-4-carboxylic acids” (2002).

Holding throughout (type): functional
The test system of assay [1] is Rattus norvegicus. Put plainly: Evolution of glycemia 2 hr after the last administration for 4 days chronic treatment at the dose of 20 mg/kg in rat.
The subject of assay [2] is Rattus norvegicus. Put plainly: Evolution of glycemia 2 hr after the last administration for 4 days chronic treatment at the dose of 200 mg/kg in rat.
Assay [3] relates to Rattus norvegicus. Put plainly: Evolution of glycemia 2 hr after first administration at the dose of 20 mg/kg in rat.
For assay [4], the system named is Rattus norvegicus. In words: Evolution of glycemia 2 hr after first administration at the dose of 200 mg/kg in rat.

Each structure is given as a SMILES string.

Turning to `O=C(O)c1c[nH]nc1OCc1ccccc1`, the Glyceamia evolution in the assay on Rattus norvegicus [1] was -24%; with Rattus norvegicus [2], -15%; with Rattus norvegicus [3], 1%; with Rattus norvegicus [4] it was -1%.

On to `COc1nn(Cc2ccc(-c3ccccc3C#N)cc2)cc1C(=O)O`, for which the Glyceamia evolution is -10% in the assay with Rattus norvegicus [1], -3% with Rattus norvegicus [2], -5% with Rattus norvegicus [3] and 1% in the assay on Rattus norvegicus [4].

Regarding `N#Cc1ccccc1-c1ccc(Cn2cc(C(=O)O)c(OCc3ccccc3)n2)cc1`, the Glyceamia evolution in the assay with Rattus norvegicus [1] is on record as -10%; in the assay on Rattus norvegicus [2], -3%; in the assay with Rattus norvegicus [3] it was -5%; in the assay with Rattus norvegicus [4], -4%.

As to `COc1nn(C)cc1C(=O)O`, the Glyceamia evolution with Rattus norvegicus [1] is -10%; in the assay on Rattus norvegicus [2] it was -10%; with Rattus norvegicus [3] it was -7%; in the assay with Rattus norvegicus [4], -5%.

As for `Cn1cc(C(=O)O)c(OCc2ccccc2)n1`, the Glyceamia evolution with Rattus norvegicus [1] is listed as 2%; with Rattus norvegicus [2], -4%; in the assay on Rattus norvegicus [3], -4%; in the assay with Rattus norvegicus [4] it was -5%.

For the compound `C=CCn1cc(C(=O)O)c(OC)n1`, the Glyceamia evolution with Rattus norvegicus [1] came out at 1%; with Rattus norvegicus [2] it was 6%; in the assay with Rattus norvegicus [3], 3%; with Rattus norvegicus [4], 5%.

Take `O=C(O)c1cn(Cc2nn[nH]n2)nc1OCc1ccccc1`: the Glyceamia evolution is -7% with Rattus norvegicus [1], -7% in the assay with Rattus norvegicus [2], 0% in the assay on Rattus norvegicus [3] and -2% in the assay with Rattus norvegicus [4].

Consider `COc1nn(CC=C(C)C)cc1C(=O)O`, for which the Glyceamia evolution in the assay on Rattus norvegicus [1] was -3%; in the assay with Rattus norvegicus [2], -11%; with Rattus norvegicus [3], 3%; with Rattus norvegicus [4] it was -8%.

Turning to `N#Cc1ccccc1-c1ccc(COc2n[nH]cc2C(=O)O)cc1`, the Glyceamia evolution is listed as -11% in the assay on Rattus norvegicus [1], -5% in the assay on Rattus norvegicus [2], -7% in the assay on Rattus norvegicus [3] and 0% with Rattus norvegicus [4].

Regarding `COC(=O)CCn1cc(C(=O)O)c(OCc2ccccc2)n1`, the Glyceamia evolution is given as -7% with Rattus norvegicus [1], -3% in the assay with Rattus norvegicus [2], -3% in the assay on Rattus norvegicus [3] and -13% in the assay on Rattus norvegicus [4].

For the compound `CCOC(=O)Cn1cc(C(=O)O)c(OCc2ccccc2)n1`, the Glyceamia evolution with Rattus norvegicus [1] is -6%; with Rattus norvegicus [2], -3%; in the assay on Rattus norvegicus [3] it was -8%; with Rattus norvegicus [4], 0%.

For `COc1[nH]ncc1C(=O)O`, the Glyceamia evolution is -20% in the assay with Rattus norvegicus [1], -8% in the assay on Rattus norvegicus [2], -19% in the assay on Rattus norvegicus [3] and -4% in the assay on Rattus norvegicus [4].

As for `Cn1cc(C(=O)O)c(=O)[nH]1`, the Glyceamia evolution in the assay on Rattus norvegicus [1] was -12%; in the assay on Rattus norvegicus [2], -16%; with Rattus norvegicus [3] it was 0%; in the assay with Rattus norvegicus [4] it was -12%.

Turning to `O=C(CCn1cc(C(=O)O)c(OCc2ccccc2)n1)Nc1ccc(Cl)cc1`, the Glyceamia evolution in the assay with Rattus norvegicus [1] is listed as -10%; in the assay with Rattus norvegicus [2] it was -19%; in the assay with Rattus norvegicus [3], -16%; in the assay on Rattus norvegicus [4], -19%.

As to `CCOC(=O)CCCn1cc(C(=O)O)c(OCc2ccccc2)n1`, the Glyceamia evolution in the assay on Rattus norvegicus [1] is on record as -3%; in the assay on Rattus norvegicus [2] it was -6%; with Rattus norvegicus [3] it was -1%; with Rattus norvegicus [4], -1%.

For `O=C(O)c1c[nH]nc1O`, the Glyceamia evolution in the assay with Rattus norvegicus [1] is given as -9%; with Rattus norvegicus [2], 2%; with Rattus norvegicus [3], -12%; in the assay on Rattus norvegicus [4] it was 7%.

As for `O=C(O)c1cn(Cc2ccccc2)nc1OCc1ccccc1`, the Glyceamia evolution was -5% with Rattus norvegicus [1], -9% in the assay with Rattus norvegicus [2], -6% in the assay with Rattus norvegicus [3] and -14% with Rattus norvegicus [4].

With `CN(C)C(=N)NC(=N)N` [METFORMIN], the Glyceamia evolution in the assay on Rattus norvegicus [2] and in the assay with Rattus norvegicus [4] was -24% throughout.
